Measured values taken from patent US9340590B2 (priority 2011, dated 2016).
pIC50: −log10 of the molar value. Positions of bridges follow the written chain, without caps; N, C: chain ends. Non-standard residues stand in square brackets, D forms with d. Residues, ends and D or L forms follow the SMILES beside them. Nle = CCCC[C@H](N)C(=O)O; Nva = CCC[C@H](N)C(=O)O; Abu = CC[C@H](N)C(=O)O; Aib = CC(C)(N)C(=O)O; βAla = NCCC(=O)O

Key:
Assay in all cases: cell-based
hNav1.3 = hNav1.3 (Homo sapiens, UniProt Q9NY46); conditions: IonWorks Quattro, use-dependent block, hNav1.3; read-out: IWQ Use Nav1.3
hNav1.7 = hNav1.7 (Homo sapiens, UniProt Q15858); assay type: cell-based; conditions: IonWorks Quattro, use-dependent block, hNav1.7; read-out: IWQ Use Nav1.7
hNav1.7, sequence (Q15858 whole entry, looked up): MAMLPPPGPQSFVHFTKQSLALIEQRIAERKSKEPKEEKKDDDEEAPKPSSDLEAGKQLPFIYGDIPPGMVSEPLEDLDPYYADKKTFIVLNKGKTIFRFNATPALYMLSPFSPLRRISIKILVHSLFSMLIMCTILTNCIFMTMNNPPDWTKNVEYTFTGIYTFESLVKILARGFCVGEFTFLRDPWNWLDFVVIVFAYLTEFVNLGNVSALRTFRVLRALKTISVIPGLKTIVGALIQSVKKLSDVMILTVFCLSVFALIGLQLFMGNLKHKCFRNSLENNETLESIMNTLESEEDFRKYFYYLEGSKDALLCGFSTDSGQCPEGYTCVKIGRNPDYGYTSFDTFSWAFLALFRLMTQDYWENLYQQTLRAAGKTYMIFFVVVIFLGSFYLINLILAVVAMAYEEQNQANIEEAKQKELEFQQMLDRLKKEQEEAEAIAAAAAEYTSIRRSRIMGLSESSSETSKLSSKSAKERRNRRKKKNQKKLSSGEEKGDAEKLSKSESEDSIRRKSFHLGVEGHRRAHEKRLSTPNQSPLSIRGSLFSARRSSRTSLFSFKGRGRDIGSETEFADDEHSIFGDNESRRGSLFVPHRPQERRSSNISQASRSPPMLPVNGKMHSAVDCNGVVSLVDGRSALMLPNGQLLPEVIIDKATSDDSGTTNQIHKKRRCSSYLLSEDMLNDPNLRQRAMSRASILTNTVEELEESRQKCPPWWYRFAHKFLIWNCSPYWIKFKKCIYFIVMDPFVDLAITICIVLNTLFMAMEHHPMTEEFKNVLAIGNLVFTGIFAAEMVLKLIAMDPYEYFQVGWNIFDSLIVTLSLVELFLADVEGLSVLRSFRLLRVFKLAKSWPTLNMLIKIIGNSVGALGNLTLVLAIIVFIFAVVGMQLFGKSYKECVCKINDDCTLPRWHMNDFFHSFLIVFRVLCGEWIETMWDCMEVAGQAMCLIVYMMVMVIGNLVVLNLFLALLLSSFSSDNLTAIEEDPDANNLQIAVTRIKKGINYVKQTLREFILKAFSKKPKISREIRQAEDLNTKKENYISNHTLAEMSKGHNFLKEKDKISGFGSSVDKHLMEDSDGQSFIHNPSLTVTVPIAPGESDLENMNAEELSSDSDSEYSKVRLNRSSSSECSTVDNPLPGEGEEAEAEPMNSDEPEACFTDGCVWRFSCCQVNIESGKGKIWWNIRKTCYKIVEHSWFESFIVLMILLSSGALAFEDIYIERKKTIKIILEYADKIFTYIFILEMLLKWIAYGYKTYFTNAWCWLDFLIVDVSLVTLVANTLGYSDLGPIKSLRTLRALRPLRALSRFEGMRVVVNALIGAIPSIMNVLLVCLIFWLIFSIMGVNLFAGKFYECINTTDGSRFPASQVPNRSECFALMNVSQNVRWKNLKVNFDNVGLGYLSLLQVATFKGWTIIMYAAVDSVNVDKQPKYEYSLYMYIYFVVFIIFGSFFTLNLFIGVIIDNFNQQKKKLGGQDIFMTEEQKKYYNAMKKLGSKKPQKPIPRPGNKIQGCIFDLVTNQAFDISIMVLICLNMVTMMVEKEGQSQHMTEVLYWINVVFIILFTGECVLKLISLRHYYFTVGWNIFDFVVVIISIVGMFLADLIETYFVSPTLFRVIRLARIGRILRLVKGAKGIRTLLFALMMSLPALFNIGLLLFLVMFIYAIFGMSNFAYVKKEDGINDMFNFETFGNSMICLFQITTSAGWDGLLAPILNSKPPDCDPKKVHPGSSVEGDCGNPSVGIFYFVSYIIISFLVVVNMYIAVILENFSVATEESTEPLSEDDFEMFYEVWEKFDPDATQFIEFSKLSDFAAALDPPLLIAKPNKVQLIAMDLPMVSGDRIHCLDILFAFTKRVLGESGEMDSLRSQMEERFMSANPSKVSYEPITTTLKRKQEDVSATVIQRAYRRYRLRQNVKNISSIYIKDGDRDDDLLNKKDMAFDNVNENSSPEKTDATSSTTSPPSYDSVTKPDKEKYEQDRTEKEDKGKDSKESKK

hNav1.5 = hNav1.5 (Homo sapiens, UniProt Q14524); conditions: IonWorks Quattro, use-dependent block, hNav1.5; read-out: IWQ Use Nav1.5
hNav1.5, sequence (Q14524 whole entry, looked up): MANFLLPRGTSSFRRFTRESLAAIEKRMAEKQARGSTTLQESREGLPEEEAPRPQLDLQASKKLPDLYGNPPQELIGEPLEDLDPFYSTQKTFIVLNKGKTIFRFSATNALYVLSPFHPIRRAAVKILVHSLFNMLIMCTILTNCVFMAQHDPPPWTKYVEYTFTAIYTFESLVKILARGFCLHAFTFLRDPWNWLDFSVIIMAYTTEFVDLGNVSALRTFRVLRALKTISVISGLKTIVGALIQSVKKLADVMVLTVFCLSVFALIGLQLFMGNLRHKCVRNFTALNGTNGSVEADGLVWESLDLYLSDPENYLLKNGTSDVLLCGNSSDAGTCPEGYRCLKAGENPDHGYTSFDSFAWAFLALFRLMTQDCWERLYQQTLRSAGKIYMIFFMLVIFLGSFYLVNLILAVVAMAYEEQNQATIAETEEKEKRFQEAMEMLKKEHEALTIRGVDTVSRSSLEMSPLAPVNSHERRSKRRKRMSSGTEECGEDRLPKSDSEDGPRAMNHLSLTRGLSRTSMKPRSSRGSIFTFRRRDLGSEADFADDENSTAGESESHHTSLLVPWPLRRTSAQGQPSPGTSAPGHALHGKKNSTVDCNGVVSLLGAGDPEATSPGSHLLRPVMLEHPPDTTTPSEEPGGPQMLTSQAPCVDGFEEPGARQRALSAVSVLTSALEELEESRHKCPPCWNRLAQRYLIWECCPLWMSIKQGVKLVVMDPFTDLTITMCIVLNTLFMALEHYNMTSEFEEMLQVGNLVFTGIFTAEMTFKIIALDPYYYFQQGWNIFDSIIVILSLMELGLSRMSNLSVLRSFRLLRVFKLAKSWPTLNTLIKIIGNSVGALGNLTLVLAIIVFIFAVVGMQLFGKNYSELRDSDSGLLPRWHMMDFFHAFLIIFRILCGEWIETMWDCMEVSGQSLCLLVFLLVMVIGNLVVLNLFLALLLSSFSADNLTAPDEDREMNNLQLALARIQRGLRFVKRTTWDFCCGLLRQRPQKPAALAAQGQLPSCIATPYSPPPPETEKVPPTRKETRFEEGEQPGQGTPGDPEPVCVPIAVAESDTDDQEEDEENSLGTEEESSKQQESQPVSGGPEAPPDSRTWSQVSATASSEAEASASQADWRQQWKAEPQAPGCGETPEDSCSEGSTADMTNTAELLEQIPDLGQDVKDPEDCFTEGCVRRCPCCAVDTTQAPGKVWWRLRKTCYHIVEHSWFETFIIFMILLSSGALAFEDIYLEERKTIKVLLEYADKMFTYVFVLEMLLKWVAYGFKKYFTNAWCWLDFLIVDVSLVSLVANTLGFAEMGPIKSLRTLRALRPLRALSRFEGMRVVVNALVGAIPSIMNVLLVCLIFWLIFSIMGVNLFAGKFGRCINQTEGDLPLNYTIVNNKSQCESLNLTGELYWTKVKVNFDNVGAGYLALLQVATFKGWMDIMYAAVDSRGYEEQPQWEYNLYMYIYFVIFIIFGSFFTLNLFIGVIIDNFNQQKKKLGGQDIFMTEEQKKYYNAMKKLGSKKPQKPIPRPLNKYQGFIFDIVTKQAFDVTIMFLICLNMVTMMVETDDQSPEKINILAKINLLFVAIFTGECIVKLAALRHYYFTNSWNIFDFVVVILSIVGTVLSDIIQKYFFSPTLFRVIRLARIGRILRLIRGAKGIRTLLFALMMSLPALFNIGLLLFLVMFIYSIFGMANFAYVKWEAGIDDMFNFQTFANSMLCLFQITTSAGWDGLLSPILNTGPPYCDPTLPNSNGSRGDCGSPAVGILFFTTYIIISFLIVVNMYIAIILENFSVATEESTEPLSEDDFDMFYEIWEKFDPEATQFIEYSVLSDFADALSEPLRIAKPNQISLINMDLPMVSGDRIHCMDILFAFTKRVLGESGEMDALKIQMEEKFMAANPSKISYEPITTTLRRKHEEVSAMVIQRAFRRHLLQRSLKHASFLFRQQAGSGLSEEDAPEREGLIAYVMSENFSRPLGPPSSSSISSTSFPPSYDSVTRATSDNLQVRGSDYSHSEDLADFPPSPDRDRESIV

SMILES	pIC50 (hNav1.3)	pIC50 (hNav1.7)	pIC50 (hNav1.5)
CC[C@H](C)[C@@H]1NC(=O)[C@@H]2CSSC[C@@H]3NC(=O)[C@H](C(C)C)NC(=O)[C@H](CC(C)C)NC(=O)[C@H](CC(N)=O)NC(=O)[C@@H]4CCCN4C(=O)[C@H](CCCNC(=N)N)NC(=O)[C@H](CSSC[C@H](NC(=O)[C@@H](N)CC(=O)O)C(=O)N[C@@H](CC(C)C)C(=O)NCC(=O)N[C@@H](C)C(=O)N[C@@H](CC(C)C)C(=O)N[C@@H](CCCNC(=N)N)C(=O)N[C@@H](CCCCN)C(=O)N2)NC(=O)[C@H](CSSC[C@@H](C(=O)N[C@@H](CCCCN)C(=O)N[C@@H](Cc2ccc(O)cc2)C(=O)N[C@H](C(=O)N[C@@H](Cc2ccccc2)C(=O)O)C(C)C)NC(=O)[C@H](Cc2c[nH]c4ccccc24)NC(=O)[C@H](CC(N)=O)NC(=O)[C@H](Cc2c[nH]cn2)NC(=O)[C@H]([C@@H](C)O)NC(=O)[C@H](CCCNC(=N)N)NC(=O)[C@H](CO)NC3=O)NC(=O)[C@H](CCCCN)NC(=O)[C@H](CC(=O)O)NC(=O)[C@H](CC(N)=O)NC(=O)[C@H](CC(=O)O)NC(=O)[C@@H]2CCCN2C1=O [compound 601] (H-DCLGALRKCIPDNDKCCRPNLVCSRTHNWCKYVF-OH; disulfide 2-17, 9-23, 16-30)	5.59	< 5.30	5.00
CC[C@H](C)[C@@H]1NC(=O)[C@@H]2CSSC[C@@H]3NC(=O)[C@H](C(C)C)NC(=O)[C@H](CC(C)C)NC(=O)[C@H](CC(N)=O)NC(=O)[C@@H]4CCCN4C(=O)[C@H](CCCNC(=N)N)NC(=O)[C@H](CSSC[C@H](NC(=O)[C@@H](N)CC(=O)O)C(=O)N[C@@H](CC(C)C)C(=O)NCC(=O)NCCC(=O)N[C@@H](Cc4ccccc4)C(=O)N[C@@H](CCCNC(=N)N)C(=O)N[C@@H](CCCCN)C(=O)N2)NC(=O)[C@H](CSSC[C@@H](C(=O)N[C@@H](CCCCN)C(=O)N[C@@H](Cc2ccc(O)cc2)C(=O)N[C@H](C(=O)N[C@@H](Cc2ccccc2)C(N)=O)C(C)C)NC(=O)[C@H](Cc2c[nH]c4ccccc24)NC(=O)[C@H](CCCCN)NC(=O)[C@H](Cc2c[nH]cn2)NC(=O)[C@H]([C@@H](C)O)NC(=O)[C@H](CCCNC(=N)N)NC(=O)[C@H](CO)NC3=O)NC(=O)[C@H](CCCCN)NC(=O)[C@H](CC(=O)O)NC(=O)[C@H](CC(N)=O)NC(=O)[C@H](CC(=O)O)NC(=O)[C@@H]2CCCN2C1=O [compound 603] (H-DCLG[βAla]FRKCIPDNDKCCRPNLVCSRTHKWCKYVF-NH2; disulfide 2-17, 9-23, 16-30)	4.93	4.82	5.02
CC[C@H](C)[C@@H]1NC(=O)[C@@H]2CSSC[C@@H]3NC(=O)[C@H](C(C)C)NC(=O)[C@H](CC(C)C)NC(=O)[C@H](CC(N)=O)NC(=O)[C@@H]4CCCN4C(=O)[C@H](CCCNC(=N)N)NC(=O)[C@H](CSSC[C@H](NC(=O)[C@@H](N)CC(=O)O)C(=O)N[C@@H](CC(C)C)C(=O)NCC(=O)NC(C)(C)C(=O)N[C@@H](Cc4ccccc4)C(=O)N[C@@H](CCCNC(=N)N)C(=O)N[C@@H](CCCCN)C(=O)N2)NC(=O)[C@H](CSSC[C@@H](C(=O)N[C@@H](CCCCN)C(=O)N[C@@H](Cc2ccc(O)cc2)C(=O)N[C@H](C(=O)N[C@@H](Cc2ccccc2)C(N)=O)C(C)C)NC(=O)[C@H](Cc2c[nH]c4ccccc24)NC(=O)[C@H](CCCCN)NC(=O)[C@H](Cc2c[nH]cn2)NC(=O)[C@H]([C@@H](C)O)NC(=O)[C@H](CCCNC(=N)N)NC(=O)[C@H](CO)NC3=O)NC(=O)[C@H](CCCCN)NC(=O)[C@H](CC(=O)O)NC(=O)[C@H](CC(N)=O)NC(=O)[C@H](CC(=O)O)NC(=O)[C@@H]2CCCN2C1=O [compound 604] (H-DCLG[Aib]FRKCIPDNDKCCRPNLVCSRTHKWCKYVF-NH2; disulfide 2-17, 9-23, 16-30)	6.21	6.36	5.19
CC[C@@H]1NC(=O)CNC(=O)[C@H](CC(C)C)NC(=O)[C@@H](NC(=O)[C@@H](N)CC(=O)O)CSSC[C@@H]2NC(=O)[C@@H]3CSSC[C@@H](C(=O)N[C@@H](CCCCN)C(=O)N[C@@H](Cc4ccc(O)cc4)C(=O)N[C@H](C(=O)N[C@@H](Cc4ccccc4)C(N)=O)C(C)C)NC(=O)[C@H](Cc4c[nH]c5ccccc45)NC(=O)[C@H](CCCCN)NC(=O)[C@H](Cc4c[nH]cn4)NC(=O)[C@H]([C@@H](C)O)NC(=O)[C@H](CCCNC(=N)N)NC(=O)[C@H](CO)NC(=O)[C@H](CSSC[C@H](NC(=O)[C@H](CCCCN)NC(=O)[C@H](CCCNC(=N)N)NC(=O)[C@H](Cc4ccccc4)NC1=O)C(=O)N[C@@H]([C@@H](C)CC)C(=O)N1CCC[C@H]1C(=O)N[C@@H](CC(=O)O)C(=O)N[C@@H](CC(N)=O)C(=O)N[C@@H](CC(=O)O)C(=O)N[C@@H](CCCCN)C(=O)N3)NC(=O)[C@H](C(C)C)NC(=O)[C@H](CC(C)C)NC(=O)[C@H](CC(N)=O)NC(=O)[C@@H]1CCCN1C(=O)[C@H](CCCNC(=N)N)NC2=O [compound 605] (H-DCLG[Abu]FRKCIPDNDKCCRPNLVCSRTHKWCKYVF-NH2; disulfide 2-17, 9-23, 16-30)	6.44	6.77	5.02
CCC[C@@H]1NC(=O)CNC(=O)[C@H](CC(C)C)NC(=O)[C@@H](NC(=O)[C@@H](N)CC(=O)O)CSSC[C@@H]2NC(=O)[C@@H]3CSSC[C@@H](C(=O)N[C@@H](CCCCN)C(=O)N[C@@H](Cc4ccc(O)cc4)C(=O)N[C@H](C(=O)N[C@@H](Cc4ccccc4)C(N)=O)C(C)C)NC(=O)[C@H](Cc4c[nH]c5ccccc45)NC(=O)[C@H](CCCCN)NC(=O)[C@H](Cc4c[nH]cn4)NC(=O)[C@H]([C@@H](C)O)NC(=O)[C@H](CCCNC(=N)N)NC(=O)[C@H](CO)NC(=O)[C@H](CSSC[C@H](NC(=O)[C@H](CCCCN)NC(=O)[C@H](CCCNC(=N)N)NC(=O)[C@H](Cc4ccccc4)NC1=O)C(=O)N[C@@H]([C@@H](C)CC)C(=O)N1CCC[C@H]1C(=O)N[C@@H](CC(=O)O)C(=O)N[C@@H](CC(N)=O)C(=O)N[C@@H](CC(=O)O)C(=O)N[C@@H](CCCCN)C(=O)N3)NC(=O)[C@H](C(C)C)NC(=O)[C@H](CC(C)C)NC(=O)[C@H](CC(N)=O)NC(=O)[C@@H]1CCCN1C(=O)[C@H](CCCNC(=N)N)NC2=O [compound 606] (H-DCLG[Nva]FRKCIPDNDKCCRPNLVCSRTHKWCKYVF-NH2; disulfide 2-17, 9-23, 16-30)	6.77	7.08	5.11
CCCC[C@@H]1NC(=O)CNC(=O)[C@H](CC(C)C)NC(=O)[C@@H](NC(=O)[C@@H](N)CC(=O)O)CSSC[C@@H]2NC(=O)[C@@H]3CSSC[C@@H](C(=O)N[C@@H](CCCCN)C(=O)N[C@@H](Cc4ccc(O)cc4)C(=O)N[C@H](C(=O)N[C@@H](Cc4ccccc4)C(N)=O)C(C)C)NC(=O)[C@H](Cc4c[nH]c5ccccc45)NC(=O)[C@H](CCCCN)NC(=O)[C@H](Cc4c[nH]cn4)NC(=O)[C@H]([C@@H](C)O)NC(=O)[C@H](CCCNC(=N)N)NC(=O)[C@H](CO)NC(=O)[C@H](CSSC[C@H](NC(=O)[C@H](CCCCN)NC(=O)[C@H](CCCNC(=N)N)NC(=O)[C@H](Cc4ccccc4)NC1=O)C(=O)N[C@@H]([C@@H](C)CC)C(=O)N1CCC[C@H]1C(=O)N[C@@H](CC(=O)O)C(=O)N[C@@H](CC(N)=O)C(=O)N[C@@H](CC(=O)O)C(=O)N[C@@H](CCCCN)C(=O)N3)NC(=O)[C@H](C(C)C)NC(=O)[C@H](CC(C)C)NC(=O)[C@H](CC(N)=O)NC(=O)[C@@H]1CCCN1C(=O)[C@H](CCCNC(=N)N)NC2=O [compound 607] (H-DCLG[Nle]FRKCIPDNDKCCRPNLVCSRTHKWCKYVF-NH2; disulfide 2-17, 9-23, 16-30)	7.17	7.80	4.95
